How the values were obtained:
[1] = target: IDH1 R132H enzyme (Homo sapiens (Human), UniProt O75874, R132H); test: Mutant IDH1 R132H biochemical assay; settings: NADPH consumption, luminescent readout; 1.5 nM enzyme, 1 μM NADPH, 250 μM α-KG, 30 minutes, 32° C.
Method: NADPH consumption was measured by luminescent readout. […] The final DMSO concentration was 2.4%. […] Luminescence was measured on a luminescent reader (10 seconds measuring time, 1 second integration period, 30% sensitivity). The decrease in luminescence is proportional to mIDH1 activity. IC50 values are determined by interpolation from plots of relative luminescence versus inhibitor concentration.

[2] = target: mutated isocitrate dehydrogenase (mIDH) protein, LN229 R132H cells (Homo sapiens (Human), UniProt O75874, R132H); test: Mutant IDH1 cellular assay (2-HG in medium of LN229 R132H cells); type: cell-based; settings: 2-HG levels in medium, 24 hours
Method: Mutant IDH1 Cellular Assay
They were harvested by trypsin and seeded into 96-well plates. Cells were incubated overnight at 37° C. in 5% CO2. The next day test compounds were added to each cell well. The final concentration of DMSO was 0.1% and DMSO controls were included. The plates were then placed in an incubator for 24 hours.
2-HG was measured according to Balss et al. (Acta Neuropathol (2012) 124: 883-891). Briefly, HClO4 was added to each well and the plates were centrifuged. Aliquots are removed and incubated with hydroxyglutarate dehydrogenase (HGDH), diaphorase, NAD+, and resazurin. The conversion of resazurin to resorufin was detected by fluorescence spectroscopy at Ex 540 nm Em 600 nm. The increase in fluorescence is proportional to 2-HG production. IC50 values are determined by interpolation from plots of relative fluorescence vs inhibitor concentration.

Sequence of IDH1 R132H enzyme (O75874 whole entry R132H): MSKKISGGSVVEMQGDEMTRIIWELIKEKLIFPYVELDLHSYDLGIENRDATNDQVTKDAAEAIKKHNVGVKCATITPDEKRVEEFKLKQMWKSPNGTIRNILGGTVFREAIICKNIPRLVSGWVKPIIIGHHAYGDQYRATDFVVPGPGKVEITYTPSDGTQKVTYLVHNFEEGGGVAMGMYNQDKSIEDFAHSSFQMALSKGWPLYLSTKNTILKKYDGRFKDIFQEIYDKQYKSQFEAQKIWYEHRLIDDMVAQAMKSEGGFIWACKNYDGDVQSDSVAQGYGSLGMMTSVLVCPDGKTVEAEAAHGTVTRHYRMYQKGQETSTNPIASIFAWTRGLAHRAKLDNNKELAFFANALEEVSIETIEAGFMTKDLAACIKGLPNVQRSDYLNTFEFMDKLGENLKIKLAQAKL
Sequence of mutated isocitrate dehydrogenase (mIDH) protein, LN229 R132H cells (O75874 whole entry R132H): as above

| Structure (SMILES) | IC50 [1] | IC50 [2] |
| --- | --- | --- |
| CC(C)Oc1cc2c(cc1C(=O)O)nc(Cc1ccc(OC(F)(F)F)cc1)n2[C@@H]1C[C@H](C)CC(C)(C)C1 (stereo in doubt) [Example 2-46] | 330 nM | 1500 nM |
| CC(C)Oc1ccc(Cc2nc3cc(C(=O)O)ccc3n2[C@@H]2C[C@H](C)CC(C)(C)C2)cc1 (stereo in doubt) [Example 2-32] | 250 nM | 2700 nM |
| COC(=O)c1cc2nc(Cc3ccc(OC(F)(F)F)cc3)n([C@H]3C[C@@H](C)CC(C)(C)C3)c2cc1C (single isomer, unassigned) [Example 2-18-1, methyl 6-methyl-2-[4-(trifluoromethoxy)benzyl]-1-[(cis)-3,3,5-trimethylcyclohexyl]-1H-benzimidazole-5-carboxylate] | 140 nM | 2600 nM |
| COC(=O)c1cc2nc(Cc3ccc(OC(F)(F)F)cc3)n([C@H]3C[C@@H](C)CC(C)(C)C3)c2cc1C (racemic) [Example 2-18, (±) methyl 6-methyl-2-[4-(trifluoromethoxy)benzyl]-1-[(cis)-3,3,5-trimethylcyclohexyl]-1H-benzimidazole-5-carboxylate] | 150 nM | 1800 nM |
| COC(=O)c1ccc2c(c1)nc(Cc1ccc(C(C)C)cc1)n2[C@H]1C[C@@H](C)CC(C)(C)C1 (racemic) [Example 2-7, (±) methyl 2-[4-(propan-2-yl)benzyl]-1-[(cis)-3,3,5-trimethylcyclohexyl]-1H-benzimidazole-5-carboxylate] | 330 nM | 3000 nM |
| COc1cc2c(cc1C(=O)O)nc(Cc1ccc(OC(F)(F)F)cc1)n2[C@@H]1C[C@H](C)CC(C)(C)C1 (single isomer, unassigned) [Example 2-45-1] | 300 nM | 1600 nM |
| COc1cc2c(cc1CCC(=O)O)nc(Cc1ccc(OC(F)(F)F)cc1)n2[C@@H]1C[C@H](C)CC(C)(C)C1 (single isomer, unassigned) [Example 2-50-1] | 200 nM | 3600 nM |
| CC(C)Oc1ccc(Cc2nc3cc(C(=O)O)ccc3n2[C@H]2C[C@@H](C)CC(C)(C)C2)cc1 (stereo in doubt) [Example 2-32-2] | 300 nM | 2500 nM |
| COC(=O)c1ccc2c(c1)nc(Cc1ccc(C(C)(C)C)cc1)n2[C@H]1C[C@@H](C)CC(C)(C)C1 (racemic) [Example 2-11, (±) methyl 2-(4-tert-butylbenzyl)-1-[(cis)-3,3,5-trimethylcyclohexyl]-1H-benzimidazole-5-carboxylate] | 1400 nM | – |
| C[C@H]1C[C@@H](n2c(C(C)(C)c3ccc(OC(F)(F)F)cc3)nc3cc(C(=O)O)ccc32)CC(C)(C)C1 (stereo in doubt) [Example 2-31] | 3800 nM | – |

The next compounds have a lower IC50 [1] than those just listed; values first:

| IC50 [1] | IC50 [2] | Structure (SMILES) |
| --- | --- | --- |
| 50 nM | 350 nM | CC(C)c1ccc(Cc2nc3cc(C(=O)O)ccc3n2[C@@H]2C[C@H](C)CC(C)(C)C2)cc1 (stereo in doubt) [Example 2-33] |
| 20 nM | 380 nM | COc1cc2c(cc1CCC(=O)O)nc(Cc1ccc(OC(F)(F)F)cc1)n2[C@H]1C[C@@H](C)CC(C)(C)C1 (stereo in doubt) [Example 2-50-2] |
| 30 nM | 160 nM | COc1cc2c(cc1C(=O)O)nc(Cc1ccc(OC(F)(F)F)cc1)n2[C@@H]1C[C@H](C)CC(C)(C)C1 (racemic) [Example 2-45] |
| 50 nM | 2500 nM | C[C@H]1C[C@@H](n2c(Cc3ccc(C(C)(C)C)cc3)nc3cc(C(=O)O)ccc32)CC(C)(C)C1 (stereo in doubt) [Example 2-37] |
| 120 nM | 600 nM | CC(C)Oc1cc2c(cc1C(=O)O)nc(Cc1ccc(OC(F)(F)F)cc1)n2[C@@H]1C[C@H](C)CC(C)(C)C1 (stereo in doubt) [Example 2-46-1] |
| 80 nM | 800 nM | CC1(C)CC(n2c(Cc3ccc(OC(F)(F)F)cc3)nc3c(F)c(C(=O)O)ccc32)CC(C)(C)C1 [Example 2-48] |
| 80 nM | 280 nM | Cc1cc2c(cc1CCC(=O)O)nc(Cc1ccc(OC(F)(F)F)cc1)n2[C@@H]1C[C@H](C)CC(C)(C)C1 (stereo in doubt) [Example 2-49] |
| 20 nM | 400 nM | Cc1cc2c(cc1C(=O)O)nc(Cc1ccc(OC(F)(F)F)cc1)n2[C@@H]1C[C@H](C)CC(C)(C)C1 (stereo in doubt) [Example 2-44-1] |
| 80 nM | 1800 nM | CC1(C)CC(n2c(Cc3ccc(OC(F)(F)F)cc3)nc3c(F)c(CCC(=O)O)ccc32)CC(C)(C)C1 [Example 2-52, 3-{4-fluoro-1-(3,3,5,5-tetramethylcyclohexyl)-2-[4-(trifluoromethoxy)benzyl]-1H-benzimidazol-5-yl}Propanoic Acid] |
| 20 nM | 120 nM | COc1cc2c(cc1C(=O)O)nc(Cc1ccc(OC(F)(F)F)cc1)n2[C@H]1C[C@@H](C)CC(C)(C)C1 (stereo in doubt) [Example 2-45-2] |
| 30 nM | 210 nM | COc1cc2c(cc1CCC(=O)O)nc(Cc1ccc(OC(F)(F)F)cc1)n2[C@@H]1C[C@H](C)CC(C)(C)C1 (racemic) [Example 2-50] |
| 70 nM | 170 nM | Cc1cc2c(cc1C(=O)O)nc(Cc1ccc(OC(F)(F)F)cc1)n2[C@@H]1C[C@H](C)CC(C)(C)C1 (stereo in doubt) [Example 2-44] |
| 130 nM | 2600 nM | Cc1cc2c(cc1C(=O)O)nc(Cc1ccc(OC(F)(F)F)cc1)n2[C@H]1C[C@@H](C)CC(C)(C)C1 (stereo in doubt) [Example 2-44-2] |
| 120 nM | 1900 nM | C[C@H]1C[C@@H](n2c(Cc3ccc(C(F)(F)F)cc3)nc3cc(C(=O)O)ccc32)CC(C)(C)C1 (stereo in doubt) [Example 2-34] |
